From article PMC7617869, “Molecular glues that inhibit deubiquitylase activity and inflammatory signaling” (Nature Structural & Molecular Biology, 2025)
Several values for one entry are separate records, joined by “and”; a condition that tells them apart may be missing. Equal values may be shown once.

Tests used:
Assay in all cases: DUB selectivity profiling (DUBprofiler, ubiquitin–rhodamine(110)–glycine)
Type in all cases: biochemical
[1] = tested on: panel of 48 purified DUBs; conditions: single dose 5 μM, including AMSH-LP
Procedure: (§1) Biochemical selectivity profiling (DUBprofiler) was performed by Ubiquigent with a panel of 48 purified DUBs and ubiquitin–rhodamine(110)–glycine as a fluorescent substrate.

[2] = target: T1, panel of 48 purified DUBs (Homo sapiens, UniProt Q9NQC7); conditions: DUB CYLD; screening concentration 5 μM; 5 µM
T1 construct: purchased Ubiquigent (DUBprofiler service)
Procedure: as §1

[3] = target: T2, panel of 48 purified DUBs (Homo sapiens, UniProt O94966); conditions: DUB USP19; screening concentration 5 μM; 5 µM
T2 construct: purchased Ubiquigent (DUBprofiler service)
Procedure: as §1

[4] = target: T3, panel of 48 purified DUBs (Homo sapiens, UniProt Q8NB14); conditions: DUB USP38; screening concentration 5 μM; 5 µM
T3 construct: purchased Ubiquigent (DUBprofiler service)
Procedure: as §1

T3 sequence (Q8NB14 whole entry): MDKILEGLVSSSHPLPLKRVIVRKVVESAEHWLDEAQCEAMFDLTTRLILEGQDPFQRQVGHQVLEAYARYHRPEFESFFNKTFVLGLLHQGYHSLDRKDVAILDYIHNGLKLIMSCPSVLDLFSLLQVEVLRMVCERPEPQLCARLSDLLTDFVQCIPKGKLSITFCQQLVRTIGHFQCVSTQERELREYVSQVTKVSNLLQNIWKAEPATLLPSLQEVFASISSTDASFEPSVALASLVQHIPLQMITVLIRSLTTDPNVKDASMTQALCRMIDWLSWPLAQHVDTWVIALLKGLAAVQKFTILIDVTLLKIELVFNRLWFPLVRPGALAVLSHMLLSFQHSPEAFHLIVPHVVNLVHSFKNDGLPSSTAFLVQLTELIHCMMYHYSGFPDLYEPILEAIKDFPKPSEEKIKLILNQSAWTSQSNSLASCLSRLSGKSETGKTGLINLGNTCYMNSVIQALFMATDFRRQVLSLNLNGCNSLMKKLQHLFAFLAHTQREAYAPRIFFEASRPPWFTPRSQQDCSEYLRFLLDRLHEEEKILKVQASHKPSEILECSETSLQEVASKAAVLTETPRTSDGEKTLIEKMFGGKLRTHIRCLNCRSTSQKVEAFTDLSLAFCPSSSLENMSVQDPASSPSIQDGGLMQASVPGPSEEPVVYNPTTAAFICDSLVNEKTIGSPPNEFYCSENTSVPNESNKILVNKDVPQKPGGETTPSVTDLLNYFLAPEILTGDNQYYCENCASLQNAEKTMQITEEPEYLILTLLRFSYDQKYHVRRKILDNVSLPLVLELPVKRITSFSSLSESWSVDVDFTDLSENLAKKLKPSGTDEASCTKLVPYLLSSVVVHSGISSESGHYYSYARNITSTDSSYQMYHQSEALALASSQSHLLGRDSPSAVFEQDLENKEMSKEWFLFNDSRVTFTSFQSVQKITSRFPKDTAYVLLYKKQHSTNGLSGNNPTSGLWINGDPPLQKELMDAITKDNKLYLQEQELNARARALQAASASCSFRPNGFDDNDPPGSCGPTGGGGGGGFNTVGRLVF
T1 sequence (Q9NQC7 whole entry): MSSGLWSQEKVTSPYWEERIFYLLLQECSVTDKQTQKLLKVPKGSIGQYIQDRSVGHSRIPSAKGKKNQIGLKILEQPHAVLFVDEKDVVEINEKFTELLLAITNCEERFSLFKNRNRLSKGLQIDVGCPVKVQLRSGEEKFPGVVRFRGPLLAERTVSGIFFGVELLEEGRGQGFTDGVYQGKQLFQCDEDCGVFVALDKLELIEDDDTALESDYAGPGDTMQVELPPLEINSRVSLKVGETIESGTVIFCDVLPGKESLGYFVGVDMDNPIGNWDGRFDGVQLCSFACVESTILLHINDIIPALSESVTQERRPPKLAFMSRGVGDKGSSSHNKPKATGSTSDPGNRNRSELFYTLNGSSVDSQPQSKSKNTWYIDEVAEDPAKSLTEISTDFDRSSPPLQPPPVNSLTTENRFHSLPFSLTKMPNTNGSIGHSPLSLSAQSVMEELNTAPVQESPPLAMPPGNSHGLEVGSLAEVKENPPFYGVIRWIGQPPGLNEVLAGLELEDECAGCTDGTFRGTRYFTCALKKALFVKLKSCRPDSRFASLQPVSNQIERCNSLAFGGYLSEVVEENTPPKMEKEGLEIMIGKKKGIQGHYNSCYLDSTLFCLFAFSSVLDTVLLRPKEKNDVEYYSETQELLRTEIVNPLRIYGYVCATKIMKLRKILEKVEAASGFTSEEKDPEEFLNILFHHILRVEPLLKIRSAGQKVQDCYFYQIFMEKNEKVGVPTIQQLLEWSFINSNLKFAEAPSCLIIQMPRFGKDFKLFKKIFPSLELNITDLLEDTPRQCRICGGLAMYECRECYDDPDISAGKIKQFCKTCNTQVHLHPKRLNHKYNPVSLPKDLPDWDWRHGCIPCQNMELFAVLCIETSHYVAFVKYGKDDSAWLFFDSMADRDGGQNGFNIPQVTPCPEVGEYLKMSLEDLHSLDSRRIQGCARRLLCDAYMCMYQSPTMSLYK
T2 sequence (O94966 whole entry): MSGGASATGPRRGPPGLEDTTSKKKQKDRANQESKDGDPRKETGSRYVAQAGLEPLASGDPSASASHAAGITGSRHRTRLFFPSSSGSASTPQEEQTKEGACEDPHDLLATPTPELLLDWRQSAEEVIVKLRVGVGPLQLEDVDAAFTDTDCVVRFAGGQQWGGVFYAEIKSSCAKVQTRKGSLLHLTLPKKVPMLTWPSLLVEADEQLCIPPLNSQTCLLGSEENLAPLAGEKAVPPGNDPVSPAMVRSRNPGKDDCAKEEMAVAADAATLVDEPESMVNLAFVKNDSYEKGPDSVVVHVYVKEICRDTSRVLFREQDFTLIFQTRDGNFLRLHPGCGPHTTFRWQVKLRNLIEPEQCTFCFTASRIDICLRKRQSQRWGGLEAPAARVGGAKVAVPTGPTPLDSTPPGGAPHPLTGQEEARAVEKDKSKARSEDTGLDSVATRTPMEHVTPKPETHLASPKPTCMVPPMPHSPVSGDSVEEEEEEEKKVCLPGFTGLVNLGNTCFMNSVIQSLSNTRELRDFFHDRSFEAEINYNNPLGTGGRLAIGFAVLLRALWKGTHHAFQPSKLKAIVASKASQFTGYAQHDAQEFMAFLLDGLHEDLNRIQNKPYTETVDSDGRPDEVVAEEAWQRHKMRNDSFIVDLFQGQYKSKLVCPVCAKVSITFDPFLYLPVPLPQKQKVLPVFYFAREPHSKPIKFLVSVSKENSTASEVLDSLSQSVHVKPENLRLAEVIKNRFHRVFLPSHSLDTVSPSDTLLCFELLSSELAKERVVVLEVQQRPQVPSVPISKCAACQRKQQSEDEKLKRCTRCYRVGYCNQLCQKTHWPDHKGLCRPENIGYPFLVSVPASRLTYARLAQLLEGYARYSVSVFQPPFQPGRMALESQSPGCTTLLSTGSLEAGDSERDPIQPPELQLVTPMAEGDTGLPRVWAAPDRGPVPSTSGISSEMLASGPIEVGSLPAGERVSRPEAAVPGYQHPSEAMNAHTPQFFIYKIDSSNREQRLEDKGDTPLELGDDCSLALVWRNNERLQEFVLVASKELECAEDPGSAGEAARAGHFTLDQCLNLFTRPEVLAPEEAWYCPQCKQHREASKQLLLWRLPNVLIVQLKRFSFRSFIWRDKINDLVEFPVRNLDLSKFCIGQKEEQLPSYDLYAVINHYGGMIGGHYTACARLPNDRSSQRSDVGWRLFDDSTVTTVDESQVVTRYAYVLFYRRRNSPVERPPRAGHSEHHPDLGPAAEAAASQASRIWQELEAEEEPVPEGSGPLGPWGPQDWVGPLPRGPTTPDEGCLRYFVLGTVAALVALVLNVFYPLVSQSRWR

`O=C(NC1CCNCC1)c1nn(C(=O)c2c(Cl)cccc2Cl)cc1NC(=O)c1c(Cl)cccc1Cl` [JMS-175-2] was tested, and the “inhibition of a panel of 48 DUBs” value [1] was “did not fully inhibit any of the DUBs”, the “Activity (% control)” value [2] was 104 % control and 112 % control and the “Activity (% control)” value [3] was 100 % control and 99 % control. The “Activity (% control)” value [4] was 94 % control and 92 % control.
